Assay results reported in article PMC5218480 (PLoS ONE, 2017).

Tested on: MV-4-11 cells
Experiment: Gene expression microarray analysis (Affymetrix PrimeView) and GSEA
Format: cell-based, human
Parameters: RFU PODN (11730768_x_at) / Fold change /veh PODN (11730768_x_at) / RFU LINC00158 (11744669_a_at) / Fold change /veh LINC00158 (11744669_a_at) / RFU DUSP10 (11751237_a_at) / Fold change /veh DUSP10 (11751237_a_at) / RFU ID3 (11757404_x_at) / Fold change /veh ID3 (11757404_x_at) / RFU PLEKHG5 (11737974_s_at) / Fold change /veh PLEKHG5 (11737974_s_at) / RFU LRRC4B (11730491_at) / Fold change /veh LRRC4B (11730491_at) / RFU GIMAP4 (11747438_a_at) / Fold change /veh GIMAP4 (11747438_a_at) / RFU KRT8 (11758183_x_at) / Fold change /veh KRT8 (11758183_x_at) / RFU CNN1 (11734310_a_at) / Fold change /veh CNN1 (11734310_a_at) / RFU VPS37D (11726825_at) / Fold change /veh VPS37D (11726825_at) / RFU C10orf10 (11716522_x_at) / Fold change /veh C10orf10 (11716522_x_at) / RFU KIR2DL2 /// KIR2DL4 /// KIR2DL5A /// KIR2DL5B /// KIR2DS1 /// KIR2DS2 /// KIR2DS3 /// KIR2DS4 /// KIR3DL3 /// KIR3DL3 /// KIR3DS1 (11738374_at) / Fold change /veh KIR2DL2 /// KIR2DL4 /// KIR2DL5A /// KIR2DL5B /// KIR2DS1 /// KIR2DS2 /// KIR2DS3 /// KIR2DS4 /// KIR3DL3 /// KIR3DL3 /// KIR3DS1 (11738374_at) / RFU C1QL1 (11718748_at) / Fold change /veh C1QL1 (11718748_at) / RFU TMPRSS4 (11747572_a_at) / Fold change /veh TMPRSS4 (11747572_a_at) / RFU HAMP (11756126_x_at) / Fold change /veh HAMP (11756126_x_at) / RFU RNFT2 (11725882_a_at) / Fold change /veh RNFT2 (11725882_a_at) / RFU NR4A2 (11747474_a_at) / Fold change /veh NR4A2 (11747474_a_at) / RFU ABCC12 (11746883_a_at) / Fold change /veh ABCC12 (11746883_a_at) / RFU TMEM136 (11760407_x_at) / Fold change /veh TMEM136 (11760407_x_at) / RFU CLDN22 /// WWC2 (11732394_at) / Fold change /veh CLDN22 /// WWC2 (11732394_at) / RFU HLA-DPB1 (11760878_x_at) / Fold change /veh HLA-DPB1 (11760878_x_at) / RFU SPINT1 (11716480_a_at) / Fold change /veh SPINT1 (11716480_a_at) / RFU GAP43 (11754022_s_at) / Fold change /veh GAP43 (11754022_s_at) / RFU A4GNT (11735810_at) / Fold change /veh A4GNT (11735810_at) / RFU PRB3 (11715151_x_at) / Fold change /veh PRB3 (11715151_x_at) / RFU TUBB4B (11761932_at) / Fold change /veh TUBB4B (11761932_at) / RFU CAPN14 (11732068_a_at) / Fold change /veh CAPN14 (11732068_a_at) / RFU TMCC2 (11721928_a_at) / Fold change /veh TMCC2 (11721928_a_at) / RFU IRGQ (11745062_a_at) / Fold change /veh IRGQ (11745062_a_at) / RFU FAM174B (11720279_a_at) / Fold change /veh FAM174B (11720279_a_at) / RFU TMPRSS4 (11748680_a_at) / Fold change /veh TMPRSS4 (11748680_a_at) / RFU FAM212B (11763350_a_at) / Fold change /veh FAM212B (11763350_a_at) / RFU PLEKHG5 (11743358_a_at) / Fold change /veh PLEKHG5 (11743358_a_at) / RFU ZSCAN30 (11745921_a_at) / Fold change /veh ZSCAN30 (11745921_a_at) / RFU CMKLR1 (11741424_a_at) / Fold change /veh CMKLR1 (11741424_a_at) / RFU LOC101060620 /// MAPK8IP1 (11723275_at) / Fold change /veh LOC101060620 /// MAPK8IP1 (11723275_at) / RFU SPTSSB (11747773_x_at) / Fold change /veh SPTSSB (11747773_x_at) / RFU PRSS12 (11739890_at) / Fold change /veh PRSS12 (11739890_at) / RFU BIN1 (11741810_x_at) / Fold change /veh BIN1 (11741810_x_at) / RFU WNT11 (11732464_a_at) / Fold change /veh WNT11 (11732464_a_at) / RFU C10orf10 (11716521_a_at) / Fold change /veh C10orf10 (11716521_a_at) / RFU C5orf56 (11738089_at) / Fold change /veh C5orf56 (11738089_at) / RFU CYB561 (11721691_x_at) / Fold change /veh CYB561 (11721691_x_at) / RFU ANKRD19P (11752326_a_at) / Fold change /veh ANKRD19P (11752326_a_at) / RFU OR2T12 /// OR2T33 /// OR2T8 (11738714_s_at) / Fold change /veh OR2T12 /// OR2T33 /// OR2T8 (11738714_s_at) / RFU VCAN (11748164_a_at) / Fold change /veh VCAN (11748164_a_at) / RFU JSRP1 (11732532_at) / Fold change /veh JSRP1 (11732532_at) / RFU KRTAP10-11 (11738290_x_at) / Fold change /veh KRTAP10-11 (11738290_x_at) / RFU MYO3A (11730013_a_at) / Fold change /veh MYO3A (11730013_a_at) / RFU EBF3 (11725865_a_at) / Fold change /veh EBF3 (11725865_a_at) / RFU CAMK2N1 (11719241_x_at) / Fold change /veh CAMK2N1 (11719241_x_at) / RFU C5orf56 (11738088_a_at) / Fold change /veh C5orf56 (11738088_a_at) / RFU OLFML3 (11715873_a_at) / Fold change /veh OLFML3 (11715873_a_at) / RFU LOC100653217 /// NTM (11731650_a_at) / Fold change /veh LOC100653217 /// NTM (11731650_a_at) / RFU MAPK11 (11762145_a_at) / Fold change /veh MAPK11 (11762145_a_at) / RFU FIZ1 (11724087_x_at) / Fold change /veh FIZ1 (11724087_x_at) / RFU OASL (11726364_x_at) / Fold change /veh OASL (11726364_x_at) / RFU SOX15 (11748057_x_at) / Fold change /veh SOX15 (11748057_x_at) / RFU CD79A (11719716_a_at) / Fold change /veh CD79A (11719716_a_at) / RFU HIST1H1D (11736915_at) / Fold change /veh HIST1H1D (11736915_at) / RFU CASKIN2 (11723855_a_at) / Fold change /veh CASKIN2 (11723855_a_at) / RFU LOC730098 (11760151_x_at) / Fold change /veh LOC730098 (11760151_x_at) / RFU OR4N2 (11742367_at) / Fold change /veh OR4N2 (11742367_at) / RFU PRRT2 (11749266_a_at) / Fold change /veh PRRT2 (11749266_a_at) / RFU SNX32 (11753110_a_at) / Fold change /veh SNX32 (11753110_a_at) / RFU CDHR5 (11726645_a_at) / Fold change /veh CDHR5 (11726645_a_at) / RFU RCAN1 (11760418_a_at) / Fold change /veh RCAN1 (11760418_a_at) / RFU FAM167A (11723789_a_at) / Fold change /veh FAM167A (11723789_a_at) / RFU FAM26E (11764081_at) / Fold change /veh FAM26E (11764081_at) / RFU ISYNA1 (11749810_s_at) / Fold change /veh ISYNA1 (11749810_s_at) / RFU ACY1 (11761880_at) / Fold change /veh ACY1 (11761880_at) / RFU 11764098_at / Fold change /veh 11764098_at / RFU SAMD14 (11745864_x_at) / Fold change /veh SAMD14 (11745864_x_at) / RFU NPB (11741838_a_at) / Fold change /veh NPB (11741838_a_at) / RFU TMPRSS6 (11731388_a_at) / Fold change /veh TMPRSS6 (11731388_a_at) / RFU KRTAP10-2 (11738614_at) / Fold change /veh KRTAP10-2 (11738614_at) / RFU ARHGAP8 /// PRR5-ARHGAP8 (11727945_x_at) / Fold change /veh ARHGAP8 /// PRR5-ARHGAP8 (11727945_x_at) / RFU KRTAP5-7 /// NADSYN1 (11734609_at) / Fold change /veh KRTAP5-7 /// NADSYN1 (11734609_at) / RFU RASL12 (11751679_a_at) / Fold change /veh RASL12 (11751679_a_at) / RFU CDKN2B (11736163_a_at) / Fold change /veh CDKN2B (11736163_a_at) / RFU PRF1 (11729649_at) / Fold change /veh PRF1 (11729649_at) / RFU, ZNF638 /// ZNF638-IT1 / Fold change vs veh, ZNF638 /// ZNF638-IT1 / RFU, PANK3 / Fold change vs veh, PANK3 / RFU, SH3YL1 / Fold change vs veh, SH3YL1 / RFU, ZEB2 / Fold change vs veh, ZEB2 / RFU, NRIP1 / Fold change vs veh, NRIP1 / RFU, PTTG1IP / Fold change vs veh, PTTG1IP / RFU, CAPN2 / Fold change vs veh, CAPN2 / RFU, MED14 / Fold change vs veh, MED14 / RFU, SNORA58 / Fold change vs veh, SNORA58 / RFU, C1orf63 / Fold change vs veh, C1orf63 / RFU, LRRFIP1 / Fold change vs veh, LRRFIP1 / RFU, NDUFAF7 / Fold change vs veh, NDUFAF7 / RFU, SLC12A2 / Fold change vs veh, SLC12A2 / RFU, IBTK / Fold change vs veh, IBTK / RFU, ESF1 / Fold change vs veh, ESF1 / Fold change vs veh, TMEM50B / RFU, TAOK1 / Fold change vs veh, TAOK1 / RFU, ACBD3 / Fold change vs veh, ACBD3 / RFU, TMA16 / Fold change vs veh, TMA16 / RFU, RWDD3 / Fold change vs veh, RWDD3 / RFU, BCAT1 / Fold change vs veh, BCAT1 / RFU, EDEM3 / Fold change vs veh, EDEM3 / RFU, TMEM33 / Fold change vs veh, TMEM33 / RFU, WDR75 / Fold change vs veh, WDR75 / RFU, AHCTF1 / Fold change vs veh, AHCTF1 / RFU, TFRC / Fold change vs veh, TFRC / RFU, ZDHHC17 / Fold change vs veh, ZDHHC17 / RFU, NOM1 / Fold change vs veh, NOM1 / RFU, ARL8B / Fold change vs veh, ARL8B / RFU, ZBTB11 / Fold change vs veh, ZBTB11 / RFU, TAMM41 / Fold change vs veh, TAMM41 / RFU, KIAA1704 /// LOC100996395 / Fold change vs veh, KIAA1704 /// LOC100996395 / RFU, ING1 / Fold change vs veh, ING1 / RFU, TRMT61B / Fold change vs veh, TRMT61B / RFU, FUBP3 / Fold change vs veh, FUBP3 / RFU, TP53 / Fold change vs veh, TP53 / RFU, TNKS2 / Fold change vs veh, TNKS2 / RFU, ZFP14 / Fold change vs veh, ZFP14 / RFU, ACTR2 / Fold change vs veh, ACTR2 / RFU, PPP3R1 / Fold change vs veh, PPP3R1 / RFU, PIK3R1 / Fold change vs veh, PIK3R1 / RFU, HNRNPA1 / Fold change vs veh, HNRNPA1 / RFU, RNF170 / Fold change vs veh, RNF170 / RFU, ZNF28 / Fold change vs veh, ZNF28 / RFU, RNGTT / Fold change vs veh, RNGTT / RFU, OGT / Fold change vs veh, OGT / RFU, BRD1 / Fold change vs veh, BRD1 / RFU, MARS / Fold change vs veh, MARS / RFU, ZNF655 / Fold change vs veh, ZNF655 / RFU, FAHD1 / Fold change vs veh, FAHD1 / RFU, BDP1 / Fold change vs veh, BDP1 / RFU, LRRCC1 / Fold change vs veh, LRRCC1 / RFU, ARID1A / Fold change vs veh, ARID1A / RFU, ZNF146 / Fold change vs veh, ZNF146 / RFU, ZNF330 / Fold change vs veh, ZNF330 / RFU, GPN3 / Fold change vs veh, GPN3 / RFU, C9orf123 / Fold change vs veh, C9orf123 / RFU, N4BP2L2 / Fold change vs veh, N4BP2L2 / RFU, ARFIP1 / Fold change vs veh, ARFIP1 / RFU, FAM179B / Fold change vs veh, FAM179B / RFU, BCL10 / Fold change vs veh, BCL10 / RFU, UHRF1BP1L / Fold change vs veh, UHRF1BP1L / RFU, BET1 / Fold change vs veh, BET1 / RFU, CNOT2 / Fold change vs veh, CNOT2 / RFU, ZNF268 / Fold change vs veh, ZNF268 / Fold change vs veh, ZNF507 / RFU, DGCR2 / Fold change vs veh, DGCR2 / RFU, WDSUB1 / Fold change vs veh, WDSUB1 / Fold change vs veh, HSP90B1 /// MIR3652 / RFU, ADSS / Fold change vs veh, ADSS / RFU, GK / Fold change vs veh, GK / RFU, ZNF148 / Fold change vs veh, ZNF148 / RFU, TAF9 / Fold change vs veh, TAF9 / RFU, SLC1A5 / Fold change vs veh, SLC1A5 / RFU, SLMO2 / Fold change vs veh, SLMO2 / RFU, ABCC4 / Fold change vs veh, ABCC4 / RFU, LOC101060439 /// RAP1B / Fold change vs veh, LOC101060439 /// RAP1B / RFU, RFX7 / Fold change vs veh, RFX7 / RFU, GTPBP10 / Fold change vs veh, GTPBP10 / RFU, CNEP1R1 / Fold change vs veh, CNEP1R1 / RFU, BIVM-ERCC5 /// ERCC5 / Fold change vs veh, BIVM-ERCC5 /// ERCC5 / RFU, ILF3 / Fold change vs veh, ILF3 / RFU 11762660_at / Fold change /veh 11762660_at / RFU VCAN (11757783_s_at) / Fold change /veh VCAN (11757783_s_at) / RFU DDX43 (11728927_at) / Fold change /veh DDX43 (11728927_at) / RFU KRT8 (11758188_x_at) / Fold change /veh KRT8 (11758188_x_at) / RFU NKD1 (11759106_at) / Fold change /veh NKD1 (11759106_at) / RFU SRD5A1 (11742802_a_at) / Fold change /veh SRD5A1 (11742802_a_at) / RFU TPSAB1 /// TPSB2 (11721975_s_at) / Fold change /veh TPSAB1 /// TPSB2 (11721975_s_at) / RFU GSTM3 (11746129_a_at) / Fold change /veh GSTM3 (11746129_a_at) / RFU IL23R (11737362_x_at) / Fold change /veh IL23R (11737362_x_at) / RFU TMEM51 (11727254_a_at) / Fold change /veh TMEM51 (11727254_a_at) / RFU PIWIL2 (11732686_x_at) / Fold change /veh PIWIL2 (11732686_x_at) / RFU ORM1 (11744905_x_at) / Fold change /veh ORM1 (11744905_x_at) / RFU CCDC152 (11743942_at) / Fold change /veh CCDC152 (11743942_at) / RFU ECM1 (11717891_a_at) / Fold change /veh ECM1 (11717891_a_at) / RFU IL23R (11748794_a_at) / Fold change /veh IL23R (11748794_a_at) / RFU TNFAIP8L3 (11732012_x_at) / Fold change /veh TNFAIP8L3 (11732012_x_at) / RFU MBOAT4 (11741988_at) / Fold change /veh MBOAT4 (11741988_at) / RFU 11764193_at / Fold change /veh 11764193_at / RFU TMEM53 (11763286_at) / Fold change /veh TMEM53 (11763286_at) / RFU MAGEB2 (11727129_at) / Fold change /veh MAGEB2 (11727129_at) / RFU TMEM200A (11744735_a_at) / Fold change /veh TMEM200A (11744735_a_at) / RFU CCDC152 (11751479_a_at) / Fold change /veh CCDC152 (11751479_a_at) / RFU FAM211A (11726209_a_at) / Fold change /veh FAM211A (11726209_a_at) / RFU RGS16 (11746705_a_at) / Fold change /veh RGS16 (11746705_a_at) / RFU VCAN (11755009_s_at) / Fold change /veh VCAN (11755009_s_at) / RFU RHOB (11743442_s_at) / Fold change /veh RHOB (11743442_s_at) / RFU RGS16 (11720943_a_at) / Fold change /veh RGS16 (11720943_a_at) / RFU RGS16 (11720944_at) / Fold change /veh RGS16 (11720944_at) / RFU, VPS4B / Fold change vs veh, VPS4B / RFU, CREB1 / Fold change vs veh, CREB1 / RFU, DNAJC13 / Fold change vs veh, DNAJC13 / RFU, GNAQ / Fold change vs veh, GNAQ / RFU, CDK5R1 / Fold change vs veh, CDK5R1 / RFU, ZRANB3 / Fold change vs veh, ZRANB3 / RFU, CUL4A / Fold change vs veh, CUL4A / RFU, CCNY / Fold change vs veh, CCNY / RFU, UFL1 / Fold change vs veh, UFL1 / RFU, COG3 / Fold change vs veh, COG3 / RFU, DIAPH2 / Fold change vs veh, DIAPH2 / RFU, SKA2 / Fold change vs veh, SKA2 / RFU, AFF3 / Fold change vs veh, AFF3 / RFU, LMF1 / Fold change vs veh, LMF1 / RFU, IPO11 / Fold change vs veh, IPO11 / RFU, DFFB / Fold change vs veh, DFFB / RFU, FOXP1 / Fold change vs veh, FOXP1 / RFU, CARD8 / Fold change vs veh, CARD8 / RFU, STRN3 / Fold change vs veh, STRN3 / RFU, ADK / Fold change vs veh, ADK / RFU, RASSF2 / Fold change vs veh, RASSF2 / RFU, WIPF1 / Fold change vs veh, WIPF1 / RFU, LARP1B / Fold change vs veh, LARP1B / RFU, RASA1 / Fold change vs veh, RASA1 / RFU, RB1 / Fold change vs veh, RB1 / RFU, PPFIA1 / Fold change vs veh, PPFIA1 / RFU, MAT2A / Fold change vs veh, MAT2A / RFU, CCT5 / Fold change vs veh, CCT5 / RFU, WDR92 / Fold change vs veh, WDR92 / RFU, CUX1 / Fold change vs veh, CUX1 / RFU, TTC7A / Fold change vs veh, TTC7A / RFU, TMEM135 / Fold change vs veh, TMEM135 / RFU, DEPTOR / Fold change vs veh, DEPTOR / RFU, CPM / Fold change vs veh, CPM / RFU, DNAJB6 / Fold change vs veh, DNAJB6 / RFU, CACNA2D3 / Fold change vs veh, CACNA2D3 / RFU, DTX4 / Fold change vs veh, DTX4 / RFU, TFCP2 / Fold change vs veh, TFCP2 / RFU, GMCL1 /// GMCL1P1 / Fold change vs veh, GMCL1 /// GMCL1P1 / RFU, AEBP2 / Fold change vs veh, AEBP2 / RFU, SNHG1 /// SNORD22 /// SNORD25 /// SNORD26 /// SNORD27 /// SNORD28 /// SNORD29 /// SNORD31 / Fold change vs veh, SNHG1 /// SNORD22 /// SNORD25 /// SNORD26 /// SNORD27 /// SNORD28 /// SNORD29 /// SNORD31 / Fold change (Aza/veh), C12orf56 (ProbeSet 11735607_a_at) / Fold change (ACY-1035/veh), C12orf56 (ProbeSet 11735607_a_at) / Fold change (Aza/veh), FGFR1OP (ProbeSet 11751329_s_at) / Fold change (ACY-1035/veh), FGFR1OP (ProbeSet 11751329_s_at) / Fold change (Aza/veh), VPS36 (ProbeSet 11739960_a_at) / Fold change (ACY-1035/veh), VPS36 (ProbeSet 11739960_a_at) / RFU SYPL1 (11715823_x_at) / Fold change /veh SYPL1 (11715823_x_at) / RFU IGFBP7 (11715501_s_at) / Fold change /veh IGFBP7 (11715501_s_at) / RFU REEP3 (11722064_at) / Fold change /veh REEP3 (11722064_at) / RFU IGLL1 (11728026_x_at) / Fold change /veh IGLL1 (11728026_x_at): dose or concentration left out as unconfirmed
Conditions: MV-4-11 cells, 48 hours

Nc1ncn([C@@H]2O[C@H](CO)[C@@H](O)[C@H]2O)c(=O)n1 [azacitidine]
RFU KRTAP5-7 /// NADSYN1 (11734609_at): 11.87 RFU
